Here are results for one compound from patent US9029420B2, “Agomelatine and pharmaceutical compositions thereof” (Tianjin Taipu Pharmaceutical Science & Technology …, priority 2009, dated 2015).

The nature of this assay: pharmacological and pharmacodynamic studies. To be noted: no method or data given.

With `COc1ccc2cccc(CCNC(C)=O)c2c1` [agomelatine crystal, N-[2-(7-methoxy-1-naphthyl)-ethyl]acetamide], the “therapeutic effects for central neural system and microcirculation” value is “good therapeutic effects for central neural system and microcirculation”.
